Results from paper PMC6072853 (Frontiers in Pharmacology, 2018).

Biological target: T1, human androgenic receptor (Homo sapiens, UniProt P10275)
T1 construct: host or cells: Saccharomyces cerevisiae
T1 sequence (P10275 1-920): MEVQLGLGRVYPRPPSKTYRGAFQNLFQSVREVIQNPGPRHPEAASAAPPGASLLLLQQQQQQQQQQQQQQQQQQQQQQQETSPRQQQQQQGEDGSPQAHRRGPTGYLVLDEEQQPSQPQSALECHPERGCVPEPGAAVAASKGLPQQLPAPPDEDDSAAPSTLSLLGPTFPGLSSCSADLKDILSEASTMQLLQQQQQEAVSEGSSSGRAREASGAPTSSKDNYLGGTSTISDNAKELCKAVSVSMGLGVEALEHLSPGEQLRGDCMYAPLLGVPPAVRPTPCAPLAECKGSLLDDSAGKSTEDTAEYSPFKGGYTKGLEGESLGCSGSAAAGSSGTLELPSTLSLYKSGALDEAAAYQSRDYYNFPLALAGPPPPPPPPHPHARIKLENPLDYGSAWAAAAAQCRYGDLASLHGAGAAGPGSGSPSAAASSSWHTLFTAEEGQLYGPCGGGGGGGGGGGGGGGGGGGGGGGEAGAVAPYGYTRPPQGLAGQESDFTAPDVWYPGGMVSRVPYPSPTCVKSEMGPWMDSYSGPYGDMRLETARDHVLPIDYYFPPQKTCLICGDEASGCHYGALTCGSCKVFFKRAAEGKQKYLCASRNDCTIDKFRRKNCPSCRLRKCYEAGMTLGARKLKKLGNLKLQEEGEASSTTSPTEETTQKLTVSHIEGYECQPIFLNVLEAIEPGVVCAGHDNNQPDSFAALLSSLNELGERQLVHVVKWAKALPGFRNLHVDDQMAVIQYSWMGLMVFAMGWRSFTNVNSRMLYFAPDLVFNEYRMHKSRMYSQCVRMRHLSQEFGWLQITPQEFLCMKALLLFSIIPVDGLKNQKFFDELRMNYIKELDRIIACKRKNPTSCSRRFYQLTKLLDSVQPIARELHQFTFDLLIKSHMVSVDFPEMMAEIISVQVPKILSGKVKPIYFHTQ
Experiment: Yeast-based androgenic reporter assay, antagonistic
Format: cell-based
Conditions: in the presence of 5α-dihydrotestosterone
Procedure: An endocrine bioassay kit (Xenometrix AG, Allschwil, Switzerland) was used to test for a potential residual androgenic activity of the selected agents. Genetically modified yeast cells (Saccharomyces cerevisiae) containing the human androgenic receptor gene integrated into a yeast chromosome, as well as an expression plasmid with the sequences of both the androgen responsive element and a lacZ reporter gene were cultured in humidified air at 31°C with agitation for 2 days. The appropriate concentrations of the test compounds and a CPRG substrate solution (chlorophenol red-β-D-galactopyranoside) for β-galactosidase were added into a 96-well microplate according to the instructions of the manufacturer. Androgen agonistic and antagonistic properties of the test compounds were determined by a colorimetric assay. For the antagonistic measurements the medium was supplemented with 5α-dihydrotestosterone (DHT). Once the reporter gene is expressed, β-galactosidase is secreted into the medium, and converts the yellow CPRG substrate into a red product, which can be quantified at 570 nm. Quantities of this red product correlate with the liberation of β-galactosidase, which is increased when an agonistic effect is present, while it is decreased when the test compound exerts an antagonistic effect. […]

Compound: C[C@]12CC[C@H]3[C@@H](CCC4=CC(=O)CC[C@@H]43)[C@@H]1CC[C@H]2Cl [Compound 3]
- androgen antagonistic activity: no antagonistic activity
